One data set has as its target T1, human CB2R (Homo sapiens, UniProt P34972).
T1 construct: bgal (beta-galactosidase fragment of the PathHunter system); host or cells: CHO-K1
Briefly: PathHunter β-arrestin recruitment assay in CHO cells. The data set is classed as cell-based. On the procedure: Assays were carried out using the PathHunter hCB2_bgal CHOK1 β-arrestin recruitment assay kit (DiscoveRx, Fremont, CA, United States) as previously described ([Soethoudt et al., 2017]). A total of 5,000 cells per well were seeded in 384-well plates (PerkinElmer, Waltham, MA, United States) containing 20 μL cell culture medium and incubated for 16–18 h at 37°C in 5% CO2. Cells were stimulated with RG7774 and incubated for 1.5 h at 37°C in 5% CO2. As the RG7774 stock solution was 100% DMSO, the final concentration of DMSO per assay point was diluted to 0.1%. PathHunter Detection mixture was used to determine β-galactosidase enzyme activity according to the manufacturer’s protocol. Detection mixture (12 µL per well) was added, and the plate was incubated for 1 h in the dark at RT. Chemiluminescence (indicated as relative light units) was measured on an EnVision multilabel plate reader (PerkinElmer, Waltham, MA, United States).

The target in the next data set is T2, Human 15-LOX (Homo sapiens, UniProt O15296).
T2 construct: purchased Cayman Chemical Company #10011263
T2 sequence (O15296 whole entry): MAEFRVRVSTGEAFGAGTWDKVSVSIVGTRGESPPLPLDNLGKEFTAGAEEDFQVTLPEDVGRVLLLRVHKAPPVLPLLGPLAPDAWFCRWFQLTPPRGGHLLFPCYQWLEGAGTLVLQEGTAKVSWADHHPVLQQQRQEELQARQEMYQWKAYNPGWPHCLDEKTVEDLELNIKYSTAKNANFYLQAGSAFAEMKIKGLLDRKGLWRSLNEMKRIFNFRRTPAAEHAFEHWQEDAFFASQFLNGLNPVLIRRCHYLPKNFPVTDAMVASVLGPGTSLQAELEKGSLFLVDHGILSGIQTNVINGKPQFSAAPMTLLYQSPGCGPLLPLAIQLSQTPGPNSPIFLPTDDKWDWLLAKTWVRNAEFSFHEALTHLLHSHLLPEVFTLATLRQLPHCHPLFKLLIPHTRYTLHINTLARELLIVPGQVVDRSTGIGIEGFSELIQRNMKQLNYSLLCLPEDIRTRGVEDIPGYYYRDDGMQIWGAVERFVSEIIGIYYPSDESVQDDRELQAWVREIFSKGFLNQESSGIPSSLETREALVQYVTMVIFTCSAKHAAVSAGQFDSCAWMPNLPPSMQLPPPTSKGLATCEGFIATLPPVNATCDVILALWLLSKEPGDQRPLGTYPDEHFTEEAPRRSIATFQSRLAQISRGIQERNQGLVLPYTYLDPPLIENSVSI
Briefly: Human 15-LOX assay. Type of data set: biochemical. Conditions: RG7774 10 µM; read-out: Mean ± SEM % inhibition of control, Human 15-LOX.

A further data set concerns the target T3, Mouse FAAH (Mus musculus, UniProt O08914).
T3 construct: Mouse brain was homogenized in 50 mM Tris-HCl (pH 7.4); from tissue; host or cells: mouse brain, 1000 g supernatant
The data set is described as follows: Mouse FAAH assay (brain). Type of data set: biochemical. Conditions: RG7774 10 µM; read-out: Mean ± SEM % inhibition of control, Mouse FAAH. As for the experimental part: Mouse brain was homogenized in 50 mM Tris-HCl (pH 7.4) using a glass potter, centrifuged at 1000 g for 10 min, and the pellet was discarded. The supernatant (50 µg) was incubated with [^14C]-AEA (10 µM) (ARC, MO, USA) at 37°C for 15 min (Tris-HCl, pH 9.0) and reactions were stopped with a 2:1 (v/v) mixture of chloroform/methanol. [^14C]-ethanolamine release in the aqueous phase was measured as previously reported. Mouse supernatants (50 µg) were preincubated with RG7774 (10 µM) for 15 min and added directly to the incubation medium. Purified human FAAH (1.7 µg; Cayman Chemical Company, MI, USA) was incubated with [^14C]-AEA (10 µM) (ARC, MO, USA) at 37°C for 15 min (pH 9.0), as previously described. […] for 15 min with 8 different concentrations of RG7774 (0.1-500 µM) and added directly to the incubation medium (250 µL). Control experiments was carried out in the presence of the FAAH inhibitor, URB-597 (100 nM).

The next data set can be described thus: Plasma protein binding. Particulars: read-out: PPB (fu). The data set is classed as in vitro ADME. As for the experimental part:
Pooled and frozen plasma from selected species were obtained from commercial suppliers (human […] and mouse […]3-C57; BioreclamationIV, NY, USA). Unbound RG7774 was identified using a 96-well, 150 μL, half-cell capacity Teflon equilibrium dialysis device with a 12–14 kDa molecular weight cut-off membrane (HT-Dialysis; Gales Ferry, CT, USA) to minimize nonspecific binding. RG7774 and positive control (diazepam) were tested with an initial total concentration of 1000 nM (cassettes of 2 to 5 test items). Equal volumes of matrix samples containing RG7774 or diazepam and blank (Soerensen) dialysis buffer were loaded into the opposite compartments of each well. Biological matrix and phosphate buffer were adjusted to pH 7.4 on the day of the experiment. The dialysis block was sealed and incubated at 37 °C in 5% CO2 for 5 h. The seal was removed and matrix and buffer from each dialysis were sampled and analyzed by LC-MS/MS. All protein binding determinations were performed in triplicate. Membrane integrity was tested in the HT-Dialysis device by determining the unbound fraction values for diazepam in each well. At equilibrium, the unbound drug concentration in the biological matrix compartment of the equilibrium dialysis apparatus is the same as the concentration of the compound in the buffer compartment. Thus, the percent unbound fraction was calculated as follows: % fraction unbound = 100 × buffer concentration after dialysis/matrix concentration after dialysis. Device recovery was checked by measuring the concentrations of compound in the matrix before dialysis and calculating the percent recovery (mass balance). Recovery ranging from 80%–120% was required for data acceptance.

The target in a further data set is T4, CYP1A2 (Homo sapiens, UniProt P05177).
T4 construct: pooled human liver microsomes, CYP probe substrate around the reported Km; from tissue; host or cells: pooled human liver microsomes
T4 sequence (P05177 whole entry): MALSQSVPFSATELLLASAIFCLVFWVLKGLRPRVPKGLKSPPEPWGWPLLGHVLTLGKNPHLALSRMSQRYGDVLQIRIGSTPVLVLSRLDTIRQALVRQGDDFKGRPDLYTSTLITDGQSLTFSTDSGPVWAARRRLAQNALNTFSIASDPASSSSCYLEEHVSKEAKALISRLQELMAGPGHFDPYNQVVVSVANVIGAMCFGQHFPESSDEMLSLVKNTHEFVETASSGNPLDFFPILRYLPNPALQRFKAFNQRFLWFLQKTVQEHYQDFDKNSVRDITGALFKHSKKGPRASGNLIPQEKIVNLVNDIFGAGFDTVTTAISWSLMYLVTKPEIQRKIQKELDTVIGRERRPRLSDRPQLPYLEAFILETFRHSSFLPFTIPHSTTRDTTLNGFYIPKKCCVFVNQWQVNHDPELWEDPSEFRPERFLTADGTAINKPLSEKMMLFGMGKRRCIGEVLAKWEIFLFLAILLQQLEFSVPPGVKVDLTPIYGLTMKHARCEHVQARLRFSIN
The data set is described as follows: CYP inhibition assay. The data set is classed as in vitro ADME. Particulars: 1A2, human liver microsomes. On the procedure: (§1) CYP assays were conducted as previously described to determine the risk of drug-drug interactions between test compounds and drugs known to be metabolized via different CYPs. […] Conditions were optimized to achieve the linear metabolic rate for the probe substrate reactions. Samples were analyzed by LC-MS/MS. Assays generate two endpoints: IC50 (μM) and percent inhibition at the highest acceptable test concentration (typically 50 μM; lower if highest concentration data are rejected due to insolubility).

For another data set, the target named is T5, CYP2C19 (Homo sapiens, UniProt P33261).
T5 construct: pooled human liver microsomes, CYP probe substrate around the reported Km; from tissue; host or cells: pooled human liver microsomes
T5 sequence (P33261 whole entry): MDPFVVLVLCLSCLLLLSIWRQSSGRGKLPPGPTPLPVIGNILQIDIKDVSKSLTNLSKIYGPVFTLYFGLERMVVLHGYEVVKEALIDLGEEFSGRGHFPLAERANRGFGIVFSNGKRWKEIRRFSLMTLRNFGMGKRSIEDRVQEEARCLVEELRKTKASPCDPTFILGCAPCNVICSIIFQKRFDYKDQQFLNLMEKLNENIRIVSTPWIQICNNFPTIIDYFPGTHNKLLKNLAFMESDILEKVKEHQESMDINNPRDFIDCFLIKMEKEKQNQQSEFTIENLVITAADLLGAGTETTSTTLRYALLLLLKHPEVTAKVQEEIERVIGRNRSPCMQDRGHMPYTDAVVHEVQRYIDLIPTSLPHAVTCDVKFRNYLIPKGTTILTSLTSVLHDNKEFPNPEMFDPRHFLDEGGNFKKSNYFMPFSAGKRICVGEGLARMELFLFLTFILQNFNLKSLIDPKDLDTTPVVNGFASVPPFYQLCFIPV
Briefly: CYP inhibition assay. Type of data set: in vitro ADME. Conditions: 2C19, human liver microsomes. On the procedure: as §1

A further data set has as its target T6, CYP2C8 (Homo sapiens, UniProt P10632).
T6 construct: pooled human liver microsomes, CYP probe substrate around the reported Km; from tissue; host or cells: pooled human liver microsomes
The data set is described as follows: CYP inhibition assay. The data set is classed as in vitro ADME. Conditions: 2C8, human liver microsomes. As for the experimental part: as §1

For another data set, the target named is T7, CYP2C9 (Homo sapiens, UniProt P11712).
T7 construct: pooled human liver microsomes, CYP probe substrate around the reported Km; from tissue; host or cells: pooled human liver microsomes
T7 sequence (P11712 whole entry): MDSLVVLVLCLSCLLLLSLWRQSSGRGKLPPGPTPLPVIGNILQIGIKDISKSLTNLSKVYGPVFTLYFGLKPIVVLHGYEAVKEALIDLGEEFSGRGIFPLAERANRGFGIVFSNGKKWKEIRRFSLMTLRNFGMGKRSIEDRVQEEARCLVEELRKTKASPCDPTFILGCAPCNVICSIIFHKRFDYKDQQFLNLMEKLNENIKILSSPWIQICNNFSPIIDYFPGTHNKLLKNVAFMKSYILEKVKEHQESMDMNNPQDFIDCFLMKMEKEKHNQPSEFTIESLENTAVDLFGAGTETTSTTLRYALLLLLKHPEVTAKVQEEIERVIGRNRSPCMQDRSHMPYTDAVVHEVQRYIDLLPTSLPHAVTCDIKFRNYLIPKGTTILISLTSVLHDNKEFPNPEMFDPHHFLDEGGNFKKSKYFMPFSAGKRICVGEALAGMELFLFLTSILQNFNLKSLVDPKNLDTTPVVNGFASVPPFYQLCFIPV
Briefly: CYP inhibition assay. Type of data set: in vitro ADME. Conditions: 2C9, human liver microsomes. On the procedure:
as §1

Another data set deals with T8, CYP2D6 (Homo sapiens, UniProt P10635).
T8 construct: pooled human liver microsomes, CYP probe substrate around the reported Km; from tissue; host or cells: pooled human liver microsomes
T8 sequence (P10635 whole entry): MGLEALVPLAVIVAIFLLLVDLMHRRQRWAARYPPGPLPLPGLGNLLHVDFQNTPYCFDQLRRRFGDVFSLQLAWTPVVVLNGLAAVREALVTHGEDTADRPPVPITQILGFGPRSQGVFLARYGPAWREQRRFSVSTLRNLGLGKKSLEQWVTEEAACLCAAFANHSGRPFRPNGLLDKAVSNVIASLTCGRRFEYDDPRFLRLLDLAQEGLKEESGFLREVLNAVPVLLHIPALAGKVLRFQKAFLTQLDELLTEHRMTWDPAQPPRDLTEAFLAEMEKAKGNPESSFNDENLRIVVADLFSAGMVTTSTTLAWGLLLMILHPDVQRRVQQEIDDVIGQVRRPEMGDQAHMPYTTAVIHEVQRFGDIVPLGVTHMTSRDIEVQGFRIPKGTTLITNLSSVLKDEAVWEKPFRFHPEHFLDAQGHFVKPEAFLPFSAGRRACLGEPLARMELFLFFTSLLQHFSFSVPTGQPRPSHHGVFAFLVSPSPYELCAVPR
Briefly: CYP inhibition assay. Type of data set: in vitro ADME. Conditions: 2D6, human liver microsomes. As for the experimental part:
as §1

The target in a further data set is T9, CYP3A4 (Homo sapiens, UniProt P08684).
T9 construct: pooled human liver microsomes, CYP probe substrate around the reported Km; from tissue; host or cells: pooled human liver microsomes
T9 sequence (P08684 whole entry): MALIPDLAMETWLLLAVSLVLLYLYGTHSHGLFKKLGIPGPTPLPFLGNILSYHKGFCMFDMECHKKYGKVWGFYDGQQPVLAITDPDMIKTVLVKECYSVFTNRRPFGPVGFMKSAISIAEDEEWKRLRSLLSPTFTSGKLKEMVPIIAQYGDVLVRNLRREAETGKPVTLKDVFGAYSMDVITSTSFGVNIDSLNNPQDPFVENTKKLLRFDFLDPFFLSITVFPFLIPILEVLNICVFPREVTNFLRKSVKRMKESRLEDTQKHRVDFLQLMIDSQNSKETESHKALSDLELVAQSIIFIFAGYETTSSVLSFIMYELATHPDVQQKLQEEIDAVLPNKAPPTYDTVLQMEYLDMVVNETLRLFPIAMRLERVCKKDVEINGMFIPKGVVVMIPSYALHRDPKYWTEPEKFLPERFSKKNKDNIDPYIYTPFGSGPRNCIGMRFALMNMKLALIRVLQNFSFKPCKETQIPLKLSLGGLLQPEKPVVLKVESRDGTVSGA
Briefly: CYP inhibition assay. Conditions: 3A4, human liver microsomes. The data set is classed as in vitro ADME. On the procedure: as §1

A further data set deals with hERG (Homo sapiens, UniProt Q12809). Briefly: hERG inhibition. An excerpt:
TABLE 2 Physicochemical and ADMET profile for RG7774.

Data set [1] is described as follows: Brain:plasma ratio after oral administration (GLP toxicology studies, data on file). Particulars: rat, rats, read-out: Mean brain:plasma ratios. Type of data set: in vivo.

Like-named read-outs stand apart in the source and are kept apart here.

T3 sequence (O08914 whole entry): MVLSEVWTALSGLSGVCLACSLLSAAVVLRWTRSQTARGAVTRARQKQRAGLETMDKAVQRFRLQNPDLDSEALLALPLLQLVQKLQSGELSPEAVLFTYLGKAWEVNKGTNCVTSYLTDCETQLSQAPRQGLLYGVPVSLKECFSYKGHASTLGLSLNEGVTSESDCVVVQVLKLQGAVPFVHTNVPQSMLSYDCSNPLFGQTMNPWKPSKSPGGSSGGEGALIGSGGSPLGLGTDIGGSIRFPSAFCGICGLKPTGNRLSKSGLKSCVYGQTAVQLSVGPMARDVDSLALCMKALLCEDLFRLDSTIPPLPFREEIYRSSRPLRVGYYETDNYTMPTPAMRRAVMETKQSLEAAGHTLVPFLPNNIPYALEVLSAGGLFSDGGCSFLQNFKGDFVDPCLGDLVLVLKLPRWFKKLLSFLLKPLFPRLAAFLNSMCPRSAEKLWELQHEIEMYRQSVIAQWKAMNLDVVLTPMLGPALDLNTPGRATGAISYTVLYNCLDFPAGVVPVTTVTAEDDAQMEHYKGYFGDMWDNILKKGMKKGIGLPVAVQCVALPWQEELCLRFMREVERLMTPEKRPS
T1 sequence (P34972 whole entry, the tested form may be a part): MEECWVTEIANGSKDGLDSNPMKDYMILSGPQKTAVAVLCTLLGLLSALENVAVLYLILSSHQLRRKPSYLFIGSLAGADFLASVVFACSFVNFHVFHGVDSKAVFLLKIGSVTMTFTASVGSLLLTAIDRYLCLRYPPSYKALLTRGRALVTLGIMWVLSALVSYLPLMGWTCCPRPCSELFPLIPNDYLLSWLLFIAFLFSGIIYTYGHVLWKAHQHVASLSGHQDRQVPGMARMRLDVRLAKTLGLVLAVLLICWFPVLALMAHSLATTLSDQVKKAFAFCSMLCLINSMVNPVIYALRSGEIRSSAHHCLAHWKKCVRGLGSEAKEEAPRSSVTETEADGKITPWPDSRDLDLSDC
T6 sequence (P10632 whole entry): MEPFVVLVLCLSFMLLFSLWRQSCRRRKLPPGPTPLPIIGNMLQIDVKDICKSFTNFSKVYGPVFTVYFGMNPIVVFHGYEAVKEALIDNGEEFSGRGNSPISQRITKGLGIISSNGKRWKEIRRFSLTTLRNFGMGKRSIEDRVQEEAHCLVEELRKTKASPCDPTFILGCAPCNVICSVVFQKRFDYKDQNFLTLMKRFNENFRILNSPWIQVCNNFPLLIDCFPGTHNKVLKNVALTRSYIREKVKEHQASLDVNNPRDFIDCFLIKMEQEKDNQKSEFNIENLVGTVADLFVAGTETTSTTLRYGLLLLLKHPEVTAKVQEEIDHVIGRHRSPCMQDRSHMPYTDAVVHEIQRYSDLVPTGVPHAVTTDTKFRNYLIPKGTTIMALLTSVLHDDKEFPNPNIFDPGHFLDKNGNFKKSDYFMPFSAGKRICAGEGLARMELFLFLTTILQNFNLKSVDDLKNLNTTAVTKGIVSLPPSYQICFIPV
Procedure for Human 15-LOX: The inhibitory effects of different concentrations of RG7774 (0.1-500 µM) on the activities of human recombinant 5-LOX (Cayman Chemical Company #60402), 15-LOX (Cayman Chemical Company #10011263), and human platelet-derived 12-LOX were determined using the Biovision Lipoxygenase Activity Assay Kit (#BVN-K978-100). This kit converts the LOX substrate to an intermediate that reacted with the probe, generating a fluorescent product. The effect of RG7774 (preincubated for 15 min) at 10 µM on LOXs (5-LOX: 0.5 or 1.2 µg; 12-LOX: 20 µg; 15-LOX: 0.23 or 0.3 µg) was ascertained by adding the compounds directly to the incubation medium and the fluorescent signal, recorded at excitation/emission 500/536 nm at 30 sec intervals for 30-40 min, was directly proportional to LOX activity. […] The percentage of human 5-, 12-, and 15-LOX activity (control) was estimated from the amount of oxidized probe in the reaction using a standard curve.

For the compound `Cn1nnnc1Cn1nnc2c(N3CC[C@H](O)C3)nc(C(C)(C)C)nc21` [RG7774, (S)-1-(5-tert-butyl-3-[(1-methyl-1H-tetrazol-5-yl)methyl]-3H-[1,2,3]triazolo[4,5-d]pyrimidin-7-yl)pyrrolidin-3-ol], a half-maximal effect on human CB2R (EC50) was put at 0.0997 ± 0.00572 µM. Moreover, the inhibition at 10 µM at Human 15-LOX was -8.7%; at Mouse FAAH it was 6 ± 8.7%. Besides, the fraction unbound at 5 h, 1000 nM in the data set “Plasma protein binding” (C57, pooled plasma, pH 7.4, mouse) came to 0.045; in “Plasma protein binding” (pooled plasma, pH 7.4, human) it was 0.178; in the data set “Plasma protein binding” (pooled plasma, pH 7.4, rat), 0.158. For the same compound, the 50% inhibitory concentration (IC50) against CYP1A2 is greater than 50 µM; on CYP2C19, greater than 50 µM; on CYP2C8, greater than 50 µM; at CYP2C9, 29 µM; on CYP2D6 it was greater than 50 µM; at CYP3A4, greater than 50 µM. In addition, the IC50 against hERG was greater than 20 µM. For the same compound, in data set [1], the Kp lay in the range of 0.0955 to 0.213.

For the origin of these results see PMC11272598, “RG7774 (Vicasinabin), an orally bioavailable cannabinoid receptor 2 (CB2R) agonist, decreases retinal vascular permeability, leukocyte adhesion, and ocular inflammation in animal models” (Frontiers in Pharmacology, 2024).
